Earlier results, collected in patent US20250064759A1, “CONTAINER COMPRISING A LISDEX[…] SOLUTION” (LABOMED PHARMACEUTICAL COMPANY S.A., priority 2021, published 2025).

Details: in vivo

C[C@@H](Cc1ccccc1)NC(=O)[C@@H](N)CCCCN [Lisdexamfetamine, L-lysine-d-amfetamine]
period over which dexamfetamine is delivered: about 8 hours
